The record followed here is patent US6441177B1 (Hoffmann-La Roche Inc., priority 1995, dated 2002).

Assay [1] concerns the target T1, human liver microsomal 2,3-oxidosqualene-lanosterol cyclase (OSC) (Homo sapiens, UniProt P48449).
T1 construct: Liver microsomes from a healthy volunteer were prepared in sodium phosphate buffer (pH 7.4); from tissue; host or cells: human liver microsomes from a healthy volunteer
T1 sequence (P48449 1-732): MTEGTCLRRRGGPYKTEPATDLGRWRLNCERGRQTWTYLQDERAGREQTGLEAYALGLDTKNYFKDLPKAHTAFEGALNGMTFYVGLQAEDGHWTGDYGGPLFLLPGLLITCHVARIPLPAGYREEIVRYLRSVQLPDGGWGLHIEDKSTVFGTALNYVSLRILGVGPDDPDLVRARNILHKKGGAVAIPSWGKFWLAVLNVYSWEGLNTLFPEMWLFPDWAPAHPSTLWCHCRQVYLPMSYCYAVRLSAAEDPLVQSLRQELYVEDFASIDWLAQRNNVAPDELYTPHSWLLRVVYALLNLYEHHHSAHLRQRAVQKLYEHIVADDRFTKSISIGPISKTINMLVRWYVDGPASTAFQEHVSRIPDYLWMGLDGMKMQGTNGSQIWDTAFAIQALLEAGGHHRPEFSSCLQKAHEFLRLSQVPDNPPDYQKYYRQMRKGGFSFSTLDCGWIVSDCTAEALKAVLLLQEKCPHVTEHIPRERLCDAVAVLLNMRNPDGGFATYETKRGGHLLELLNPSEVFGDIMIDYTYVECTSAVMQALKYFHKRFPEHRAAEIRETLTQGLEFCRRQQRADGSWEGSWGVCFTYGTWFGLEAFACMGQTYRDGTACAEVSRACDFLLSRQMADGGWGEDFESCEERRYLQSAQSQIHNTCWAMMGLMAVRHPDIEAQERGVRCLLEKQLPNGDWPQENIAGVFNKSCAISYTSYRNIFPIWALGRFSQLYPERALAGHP
The assay can be described thus: Inhibition of human liver microsomal 2,3-oxidosqualene-lanosterol cyclase (OSC). It is filed as biochemical. Conditions: human liver microsomes; for pIC50: concentration reducing conversion of MOS into lanosterol to 50% of control; for inhibition at 0.1 µM: constant test substance concentration of 100 nM, 1 hour at 37° C., against controls. Here is the method: Inhibition of Human Liver Microsomal 2,3-Oxidosqualene-lanosterol Cyclase (OSC)
Liver microsomes from a healthy volunteer were prepared in sodium phosphate buffer (pH 7.4). The OSC activity was measured in the same buffer which also contained 1 mM EDTA and 1 mM dithiothreitol. The microsomes were diluted to 0.8 mg/ml protein in cold phosphate buffer. Dry [^14C]R,S-monooxidosqualene (MOS; 12.8 mCi/mmol) was diluted to 20 nCi/μl with ethanol and mixed with phosphate buffer-1% BSA (Bovine Serum Albumin). A stock solution of 1 mM test substance in DMSO was diluted to the desired concentration with phosphate buffer-1% BSA. 40 μl of microsomes were mixed with 20 μl of the solution of the test substance and the reaction was subsequently started with 20 μl of the [^14C]R,S-MOS solution. The final conditions were: 0.4 mg/ml of microsomal proteins and […] of [^14C]R,S-MOS in phosphate buffer, pH 7.4, containing 0.5% albumin, DMSO <0.1% and ethanol <2%, in a total volume of 80 μl.
After 1 hour at 37° C. the reaction was stopped by the addition of 0.6 ml of 10% KOH-methanol, 0.7 ml of water and 0.1 ml of hexane:ether (1:1, v/v) which contained 25 μg of non-radioactive MOS and 25 μg of lanosterol as the carrier. After shaking 1 ml of hexane:ether (1:1, v/v) was added to each test tube, these were again shaken and then centrifuged. The upper phase was transferred into a glass test tube, the lower phase was again extracted with hexane:ether and combined with the first extract. The entire extract was evaporated to dryness with nitrogen and the residue was suspended in 50 μl of hexane:ether and applied to a silica gel plate. Chromatographic separation was effected in hexane:ether (1:1, v/v) as the eluent. […] After drying radioactive MOS and lanosterol were observed on the silica gel plate. The ratio of MOS to lanosterol was determined from the radioactive bands in order to determine the OSC inhibition.
The test was carried out on the one hand with a constant test substance concentration of 100 nM and the percentage OSC inhibition against controls was calculated. In addition, the test was carried out with different test substance concentrations and subsequently the IC50 value was calculated, i.e. the concentration required to reduce the conversion of MOS into lanosterol to 50% of the control value.
A general note: Microsomes from liver hold many membrane-bound enzymes, among them those of drug oxidation.

The test system of assay [2] is Cryptococcus neoformans. The assay can be described thus: Antifungal activity in vitro, microdilution method. Type of assay: cell-based. Conditions: growth inhibition, incubation at 27° C. for 48 hours, read-out: IC50 (mg/ml) for: C. neoformans after: 48 hours. The protocol:
(§1) Antifungal Activity In Vitro The compounds were tested for antifungal activity against Candida albicans, Cryptococcus neoformans and Aspergillus fumigatus using a microdilution method on microtitre plates (96 wells per plate). Yeast supplemented with 1% glucose and 0.25% di-potassium phosphate was used for the three fungal strains. The fungal cells were inoculated at 3×10^4 CFU (Colony Forming Unit) in […] of medium per well. The medium contained increasing concentrations of test substance. After incubation at 27° C. for 24 or 48 hours the turbidity in each well was measured by a microtitre plate reader. The growth inhibition was calculated in comparison to a control (without test substance). The IC50 value given in the following Table is the concentration of test substance at which the growth is inhibited by 50%.

Assay [3] deals with Candida albicans. Description: Antifungal activity in vitro, microdilution method. Type of assay: cell-based. The note with it: growth inhibition. The protocol:
as §1
In general terms: In broth dilution the organism is exposed to a series of concentrations in liquid medium.

Assay [4] relates to Aspergillus fumigatus. Description: Antifungal activity in vitro, microdilution method. Type of assay: cell-based. The note with it: growth inhibition, incubation at 27° C. for 48 hours, read-out: IC50 (mg/ml) for: A. fumigatus after: 48 hours. Here is the method:
as §1

pIC50: −log10 of the molar value. ≈ marks a conversion by molar mass, not a printed value. Where two headings read alike, the source gives them in different places.

Take `C=CCN(C)C/C=C/COc1ccc(C(O)(C=C)c2ccc(Br)cc2)cc1` (racemic) [Example 8b, (E)-(RS)-1-[4-[4-(allyl-methyl-amino)-but-2-enyloxy]-phenyl]-1-(4-bromo-phenyl)-prop-2-en-1-ol]: in assay [1], the pIC50 (usually −log10 of the IC50, conventionally taken in molar units) was 7.63 and the inhibition (in general, how much of the control response was suppressed) at 0.1 µM stood at 78%. For `CN(C[C@@H]1C[C@H]1COc1ccc(C(=O)c2ccc(Br)cc2)cc1)C1CC1` (racemic) [Example 31, (1RS,2RS)-(4-bromo-phenyl)-[4-[2-[(cyclopropyl-methyl-amino)-methyl]-cyclopropylmethoxy]-phenyl]-methanone], in that order: 7.66 and 85%. For `CN(C[C@@H]1C[C@H]1COc1ccc(C(=O)c2ccc(Br)cc2)cc1F)C1CC1` (racemic) [Example 32a, (1RS,2RS)-(4-bromo-phenyl)-[4-[2-[(cyclopropyl-methyl-amino)-methyl]-cyclopropylmethoxy]-3-fluoro-phenyl]-methanone] the same measures were 8.44 and 85%. For `C=CCN(C)CCCCCCOc1ccc(C(C)(O)c2ccc(Br)cc2)c(F)c1` (racemic) [Example 38, (RS)-1-[4-[6-(allyl-methyl-amino)-hexyloxy]-2-fluoro-phenyl]-1-(4-bromo-phenyl)-ethanol] the same measures were 7.68 and 82%.

As to `C=CCN(C)C/C=C/COc1ccc(C(C)(O)CCC=C(C)C)cc1` (racemic) [Example 39a, (E)-(RS)-2-[4-[4-(allyl-methyl-amino)-but-2-enyloxy]-phenyl]-6-methyl-hept-5-en-2-ol], in assay [1], the pIC50 is 7.91 and 0.1 µM produced 87% inhibition. As for `C=CCN(C)Cc1ccc(-c2ccc(C(F)c3ccc(Br)cc3)cc2)cc1` (racemic) [Example 48, (RS)-allyl-[4′-[(4-bromo-phenyl)-fluoro-methyl]-biphenyl-4-ylmethyl]-methyl-amine], the IC50 in assay [2] was 0.00047 mg/mL (≈ 1.11 µM); in assay [3] (incubation at 27° C. for 24 hrs., read-out: IC50 (mg/ml) for: C. albicans after: 24 hrs.), less than 0.00032 mg/mL; in assay [3] (incubation at 27° C. for 48 hrs., read-out: IC50 (mg/ml) for: C. albicans after: 48 hrs.) it was less than 0.00032 mg/mL; in assay [4], 0.018 mg/mL (≈ 42.4 µM). Turning to `C=CCN(C)C/C=C/COc1cc(F)c(C(=O)c2ccc(Br)cc2)cc1F` [Example 1, (E)-[4-[4-(allyl-methyl-amino)-but-2-enyloxy]-2,5-difluoro-phenyl]-(4-bromo-phenyl)-methanone], in assay [1], the pIC50 is 8.62 and testing at 0.1 µM gave an inhibition of 90%. In turn, `O=C(c1ccc(Br)cc1)c1ccc(OC/C=C/CN2CCC(O)CC2)cc1` [Example 2l, (E)-(4-bromo-phenyl)-[4-[4-(4-hydroxy-piperidin-1-yl)-but-2-enyloxy]-phenyl]-methanone] showed an inhibition at 0.1 µM in assay [1] of 81%. Still for that read-out and setting: next, `CN(CCCCCCOc1ccc(C(=O)c2ccc(Br)cc2)c(F)c1)C1CC1` [Example 2p, (4-bromo-phenyl)-[4-[6-(cyclopropyl-methyl-amino)-hexyloxy]-2-fluoro-phenyl]-methanone]: 66%. For the compound `C=CCN(C)CCCCCCOc1ccc(C(=O)c2ccc(Br)cc2)c(SC)c1` [Example 3, [4-[6-(allyl-methyl-amino)-hexyloxy]-2-methylsulphanyl-phenyl]-(4-bromo-phenyl)-methanone], in assay [1], the pIC50 is 8.31 and at 0.1 µM the inhibition was 92%. For `C=CCN(C)C/C=C/COc1ccc(C(=C)c2ccc(Br)cc2)cc1` [Example 8f, (E)-allyl-[4-[4-[1-(4-bromo-phenyl)-vinyl]-phenoxy]-but-2-enyl]-methyl-amine], in that order: 7.87 and 90%. The compound `CN(CCCCCCOc1ccccc1C(=O)c1ccc(Br)cc1)C1CC1` [Example 13a, [6-[6-(cyclopropyl-methyl-amino)-hexyloxy]-phenyl]-(4-bromo-phenyl)-methanone] came in with an inhibition at 0.1 µM in assay [1] of 82%. Take `CN(C/C=C/COc1ccc(C(=O)c2ccc(C#N)cc2)cc1F)C1CC1` [Example 13b, (E)-4-[4-[4-(cyclopropyl-methyl-amino)-but-2-enyloxy]-3-fluoro-benzoyl]-benzonitrile]: in assay [1], the pIC50 is 8.10 and the inhibition at 0.1 µM is 93.5%. With `CN(CCCCCCOc1ccc(C(=O)c2ccc(Br)cc2)cc1)CC1CC1` [Example 15, (4-bromo-phenyl)-[4-[6-(cyclopropylmethyl-methyl-amino)-hexyloxy]-phenyl]-methanone], in assay [1], the pIC50 is 7.49 and testing at 0.1 µM gave an inhibition of 83%. For `C=CCN(C)CCCCCCNc1ccc(C(=O)c2ccc(Br)cc2)cc1F` [Example 30, [4-[6-(allyl-methyl-amino)-hexylamino]-3-fluoro-phenyl]-(4-bromo-phenyl)-methanone] the same measures were 8.49 and 93%. Turning to `C=CCN(C)CCCCCCOc1ccc(C(=O)c2ccc(Br)cc2)c(NC)c1` [Example 33, [4-[6-(allyl-methyl-amino)-hexyloxy]-2-methylamino-phenyl]-(4-bromo-phenyl)-methanone], in assay [1], the pIC50 was 8.64 and testing at 0.1 µM gave an inhibition of 98%. Consider `C=CCN(C)CCCCCCOc1ccc(C(=O)c2ccc(Br)cc2)c(N(C)C)c1` [Example 34a, [4-[6-(allyl-methyl-amino)-hexyloxy]-2-dimethylamino-phenyl]-(4-bromo-phenyl)-methanone], for which, in assay [1], the pIC50 was 8.15 and at 0.1 µM the inhibition was 98%.

The compound `C=CCN(C)CCCCCCOc1ccc(C(=O)c2ccc(Br)cc2)c(O)c1` [Example 35, [4-[6-(allyl-methyl-amino)-hexyloxy]-2-hydroxy-phenyl]-(4-bromo-phenyl)-methanone] registered an inhibition at 0.1 µM in assay [1] of 97%. In assay [1], `C=CCN(C)CCCCCCOC1CCN(S(=O)(=O)c2ccc(Br)cc2)CC1` [Example 49, allyl-[6-[1-(4-bromo-phenylsulphonyl)-piperidin-4-yloxy]-hexyl]-methyl-amine] had a pIC50 of 8.26 and an inhibition at 0.1 µM of 94%. In assay [1], `C=CCN(C)C/C=C/COc1ccc(C(=NOC)c2ccc(Br)cc2)cc1` [Example 51, (E)-and/or (Z)-[4-[(E)-4-(ally-methyl-amino)-but-2-enyloxy]-phenyl]-(4-bromo-phenyl)-methanone-0-methyl-oxime] gave a pIC50 of 7.89 and an inhibition at 0.1 µM of 87.5%.
